Experimental data: patent US20190185865A1, “USE OF PROKARYOTIC TRANSCRIPTIONAL ACTIVATORS AS METABOLITE BIOSENSORS IN EUKARYOTIC CELLS” (Danmarks Tekniske Universitet, priority 2016, published 2019)

Biological target: T1, BenM (Acinetobacter baylyi, UniProt O68014)
T1 construct: expressed in transfected cells; host or cells: Saccharomyces cerevisiae CEN.PK113-5A, chromosomal integration; promoters TDH3p, TEF1p, RNR2p or REV1p
Assay: CCM-induced GFP expression in yeast strains combining BenM expression cassettes and CYC1p reporter promoter variants (flow cytometry)
Type: cell-based, Saccharomyces cerevisiae
Settings: for FC (+/−CCM): 1.4 mM CCM, 24 h
Source text: Strains, chemicals and media. Saccharomyces cerevisiae CEN.PK102-5B (MATa ura3-52 his3Δ1 leu2-3/112 MAL2-8^c SUC2), CEN.PK113-5A (MATa, trp1 his3Δ1 leu2-3/112 MAL2-8^c SUC2) and CEN.PK113-7D (wild type, MATa MAL2-8^c SUC2) strains were obtained from Peter Kotter (Johann Wolfgang Goethe-University Frankfurt, Germany). In principal any other yeast strains may be used, such as one obtained from public repository EuroScarf. EasyClone plasmids used in this work are described in Jensen, N. B. et al. EasyClone: method for iterative chromosomal integration of multiple genes in Saccharomyces cerevisiae. FEMS Yeast Res. 14, 238-48 (2014). Escherichia coli strain DH5a was used as a host for cloning and plasmid propagation. The chemicals and Pfu TURBO DNA polymerase were commercially obtained (Sigma-Aldrich and Agilent Technologies Inc., respectively). All acids used were >97% in purity. S. cerevisiae cells were grown at 30° C. in synthetic complete medium as well as drop-out media and agar plates were prepared using pre-mixed drop-out powders (Sigma-Aldrich). Mineral medium was freshly prepared as described previously. For all media containing diacids, 1.4 mM of the individual diacids were dissolved in mineral medium and pH adjusted to 4.5 before sterile filtration. For CCM several dilutions were made to examine the performance of the CCM biosensor. For naringenin, mineral medium was supplemented with 0, 0.05, 0.10 or 0.20 mM naringenin, dissolved in ethanol, the final ethanol concentration for each medium was 2% (v/v), and the final pH of the medium was adjusted to 6.0. E. coli cells were grown at 37° C. in Luria-Bertani (LB) medium supplemented with 100 μg/mL ampicillin.
Events were analyzed using FlowJo software (TreeStar Inc.).

[1] = strain MeLS0162, RNR2p-BenM + 249bp_CYC1p:GFP
[2] = strain MeLS0163, RNR2p-BenM + 209bp_CYC1p:GFP
[3] = strain MeLS0164, TDH3p-BenM + 491bp_CYC1p:GFP
[4] = strain MeLS0165, TDH3p-BenM + 272bp_CYC1p:GFP
[5] = strain MeLS0166, TDH3p-BenM + 249bp_CYC1p:GFP
[6] = strain MeLS0167, TDH3p-BenM + 209bp_CYC1p:GFP
[7] = strain MeLS0168, TEF1p-BenM + 491bp_CYC1p_BenO_T1:GFP
[8] = strain MeLS0169, TEF1p-BenM + 249bp_CYC1p_BenO_T1:GFP
[9] = strain MeLS0170, RNR2p-BenM + 491bp_CYC1p_BenO_T1:GFP
[10] = strain MeLS0171, RNR2p-BenM + 249bp_CYC1p_BenO_T1:GFP
[11] = strain MeLS0172, TDH3p-BenM + 491bp_CYC1p_BenO_T1:GFP
[12] = strain MeLS0173, TDH3p-BenM + 249bp_CYC1p_BenO_T1:GFP
[13] = strain MeLS0182, TEF1p-BenM + 272bp_CYC1p_BenO_T2:GFP
[14] = strain MeLS0183, TEF1p-BenM + 272bp_CYC1p_BenO_T1/T2:GFP
[15] = strain MeLS0184, TEF1p-BenM + 249bp_CYC1p_BenO_T2:GFP
[16] = strain MeLS0185, TEF1p-BenM + 249bp_CYC1p_BenO_T1/T2:GFP
[17] = strain MeLS0186, REV1p-BenM + 272bp_CYC1p_BenO_T2:GFP
[18] = strain MeLS0187, REV1p-BenM + 272bp_CYC1p_BenO_T1/T2:GFP
[19] = strain MeLS0188, REV1p-BenM + 249bp_CYC1p_BenO_T2:GFP
[20] = strain MeLS0189, REV1p-BenM + 249bp_CYC1p_BenO_T1/T2:GFP
[21] = strain MeLS0190, TDH3p-BenM + 272bp_CYC1p_BenO_T2:GFP
[22] = strain MeLS0191, TDH3p-BenM + 272bp_CYC1p_BenO_T1/T2:GFP
[23] = strain MeLS0192, TDH3p-BenM + 249bp_CYC1p_BenO_T2:GFP
[24] = strain MeLS0193, TDH3p-BenM + 249bp_CYC1p_BenO_T1/T2:GFP
[25] = strain MeLS0195, RNR2p-BenM + 272bp_CYC1p_BenO_T1/T2:GFP
[26] = strain MeLS0196, RNR2p-BenM + 249bp_CYC1p_BenO_T2:GFP
[27] = strain MeLS0197, RNR2p-BenM + 249bp_CYC1p_BenO_T1/T2:GFP
[28] = strain MeLS0263, TDH3p-BenM + 491bp_CYC1p_BenO_T2:GFP
[29] = strain MeLS0264, TDH3p-BenM + 209bp_CYC1p_BenO_T2:GFP
[30] = strain MeLS0265, RNR2p-BenM + 491bp_CYC1p_BenO_T2:GFP
[31] = strain MeLS0266, RNR2p-BenM + 209bp_CYC1p_BenO_T2:GFP
[32] = strain MeLS0267, TDH3p-BenM + 491bp_CYC1p_BenO_T1/T2:GFP
[33] = strain MeLS0268, TDH3p-BenM + 209bp_CYC1p_BenO_T1/T2:GFP
[34] = strain MeLS0269, RNR2p-BenM + 491bp_CYC1p_BenO_T1/T2:GFP
[35] = strain MelS0194, RNR2p-BenM + 272bp_CYC1p_BenO_T2:GFP

T1 sequence (O68014 whole entry): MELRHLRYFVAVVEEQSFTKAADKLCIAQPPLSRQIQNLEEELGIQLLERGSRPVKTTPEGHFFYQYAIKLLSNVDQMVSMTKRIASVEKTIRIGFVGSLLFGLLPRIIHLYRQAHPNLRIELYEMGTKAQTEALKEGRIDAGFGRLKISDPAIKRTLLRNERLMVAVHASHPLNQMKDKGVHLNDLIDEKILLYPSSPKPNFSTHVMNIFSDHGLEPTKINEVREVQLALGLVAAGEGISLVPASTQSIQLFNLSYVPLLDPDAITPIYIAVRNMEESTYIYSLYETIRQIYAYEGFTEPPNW

Structure (SMILES): O=C(O)/C=C\C=C/C(=O)O [CCM, cis, cis-muconic acid]
- Mean fluorescense intensities of GFP (24 h), CCM (1.4 mM) [1]: 164
- FC (+/−CCM) [1]: 1.121
- Mean fluorescense intensities of GFP (24 h), CCM (1.4 mM) [2]: 164
- FC (+/−CCM) [2]: 1.121
- Mean fluorescense intensities of GFP (24 h), CCM (1.4 mM) [3]: 4509
- FC (+/−CCM) [3]: 1.126
- Mean fluorescense intensities of GFP (24 h), CCM (1.4 mM) [4]: 216
- FC (+/−CCM) [4]: 1.157
- Mean fluorescense intensities of GFP (24 h), CCM (1.4 mM) [5]: 205
- FC (+/−CCM) [5]: 1.131
- Mean fluorescense intensities of GFP (24 h), CCM (1.4 mM) [6]: 194
- FC (+/−CCM) [6]: 1.09
- Mean fluorescense intensities of GFP (24 h), CCM (1.4 mM) [7]: 20250
- FC (+/−CCM) [7]: 1.312
- Mean fluorescense intensities of GFP (24 h), CCM (1.4 mM) [8]: 2913
- FC (+/−CCM) [8]: 4.337
- Mean fluorescense intensities of GFP (24 h), CCM (1.4 mM) [9]: 6114
- FC (+/−CCM) [9]: 1.089
- Mean fluorescense intensities of GFP (24 h), CCM (1.4 mM) [10]: 290
- FC (+/−CCM) [10]: 1.549
- Mean fluorescense intensities of GFP (24 h), CCM (1.4 mM) [11]: 10605
- FC (+/−CCM) [11]: 1.538
- Mean fluorescense intensities of GFP (24 h), CCM (1.4 mM) [12]: 3554
- FC (+/−CCM) [12]: 4.707
- Mean fluorescense intensities of GFP (24 h), CCM (1.4 mM) [13]: 211
- FC (+/−CCM) [13]: 1.155
- Mean fluorescense intensities of GFP (24 h), CCM (1.4 mM) [14]: 511
- FC (+/−CCM) [14]: 1.969
- Mean fluorescense intensities of GFP (24 h), CCM (1.4 mM) [15]: 475
- FC (+/−CCM) [15]: 1.653
- Mean fluorescense intensities of GFP (24 h), CCM (1.4 mM) [16]: 9992
- FC (+/−CCM) [16]: 3.797
- Mean fluorescense intensities of GFP (24 h), CCM (1.4 mM) [17]: 197
- FC (+/−CCM) [17]: 1.201
- Mean fluorescense intensities of GFP (24 h), CCM (1.4 mM) [18]: 370
- FC (+/−CCM) [18]: 1.789
- Mean fluorescense intensities of GFP (24 h), CCM (1.4 mM) [19]: 194
- FC (+/−CCM) [19]: 1.215
- Mean fluorescense intensities of GFP (24 h), CCM (1.4 mM) [20]: 181
- FC (+/−CCM) [20]: 1.22
- Mean fluorescense intensities of GFP (24 h), CCM (1.4 mM) [21]: 218
- FC (+/−CCM) [21]: 1.088
- Mean fluorescense intensities of GFP (24 h), CCM (1.4 mM) [22]: 691
- FC (+/−CCM) [22]: 1.892
- Mean fluorescense intensities of GFP (24 h), CCM (1.4 mM) [23]: 978
- FC (+/−CCM) [23]: 1.761
- Mean fluorescense intensities of GFP (24 h), CCM (1.4 mM) [24]: 1630
- FC (+/−CCM) [24]: 4.004
- Mean fluorescense intensities of GFP (24 h), CCM (1.4 mM) [25]: 199
- FC (+/−CCM) [25]: 1.238
- Mean fluorescense intensities of GFP (24 h), CCM (1.4 mM) [26]: 349
- FC (+/−CCM) [26]: 1.575
- Mean fluorescense intensities of GFP (24 h), CCM (1.4 mM) [27]: 256
- FC (+/−CCM) [27]: 1.571
- Mean fluorescense intensities of GFP (24 h), CCM (1.4 mM) [28]: 1197
- FC (+/−CCM) [28]: 1.898
- Mean fluorescense intensities of GFP (24 h), CCM (1.4 mM) [29]: 527
- FC (+/−CCM) [29]: 1.495
- Mean fluorescense intensities of GFP (24 h), CCM (1.4 mM) [30]: 698
- FC (+/−CCM) [30]: 1.513
- Mean fluorescense intensities of GFP (24 h), CCM (1.4 mM) [31]: 179
- FC (+/−CCM) [31]: 1.072
- Mean fluorescense intensities of GFP (24 h), CCM (1.4 mM) [32]: 2218
- FC (+/−CCM) [32]: 2.64
- Mean fluorescense intensities of GFP (24 h), CCM (1.4 mM) [33]: 2172
- FC (+/−CCM) [33]: 3.25
- Mean fluorescense intensities of GFP (24 h), CCM (1.4 mM) [34]: 2589
- FC (+/−CCM) [34]: 2.005
- Mean fluorescense intensities of GFP (24 h), CCM (1.4 mM) [35]: 258
- FC (+/−CCM) [35]: 1.065
- specificity of GFP induction among diacids tested (wild-type BenM, diacids 1.4 mM, pH 4.5, 24 h): induce GFP expression specifically in response to CCM
